25 compounds from patent US20230167073A1 (Teijin Pharma Limited, priority 2020, published 2023) can be followed below.

The target in the test is T1, Human TRPC6 (Homo sapiens, UniProt Q9Y210).
T1 construct: expressed in transfected cells
T1 sequence (Q9Y210 1-931): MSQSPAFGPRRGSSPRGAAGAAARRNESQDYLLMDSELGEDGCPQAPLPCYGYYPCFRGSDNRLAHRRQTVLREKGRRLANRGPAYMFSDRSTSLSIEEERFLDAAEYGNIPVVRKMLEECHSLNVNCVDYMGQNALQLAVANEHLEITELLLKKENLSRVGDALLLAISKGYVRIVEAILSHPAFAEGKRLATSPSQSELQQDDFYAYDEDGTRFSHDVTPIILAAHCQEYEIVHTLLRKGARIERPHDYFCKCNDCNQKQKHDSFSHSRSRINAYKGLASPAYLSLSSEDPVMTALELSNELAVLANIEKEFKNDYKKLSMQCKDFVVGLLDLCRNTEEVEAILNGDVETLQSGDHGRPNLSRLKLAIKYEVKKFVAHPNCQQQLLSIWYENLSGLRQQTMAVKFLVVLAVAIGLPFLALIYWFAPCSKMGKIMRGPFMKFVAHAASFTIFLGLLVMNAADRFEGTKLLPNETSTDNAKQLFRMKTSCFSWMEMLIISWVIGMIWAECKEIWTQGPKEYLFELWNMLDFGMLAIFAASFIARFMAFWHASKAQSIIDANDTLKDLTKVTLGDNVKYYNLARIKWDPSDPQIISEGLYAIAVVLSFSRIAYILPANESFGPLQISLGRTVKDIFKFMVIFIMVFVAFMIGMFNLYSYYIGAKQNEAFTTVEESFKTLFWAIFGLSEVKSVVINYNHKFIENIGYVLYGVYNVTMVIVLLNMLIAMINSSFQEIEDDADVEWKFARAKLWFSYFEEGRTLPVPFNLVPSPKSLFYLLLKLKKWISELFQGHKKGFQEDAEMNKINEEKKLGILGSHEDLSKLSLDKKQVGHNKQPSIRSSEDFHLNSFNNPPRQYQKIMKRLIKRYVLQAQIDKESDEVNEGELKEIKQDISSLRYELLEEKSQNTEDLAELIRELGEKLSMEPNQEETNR
The experiment in a line: Evaluation of TRPC6 channel inhibitory activity (1), FLIPR Calcium 5 Assay Kit, OAG stimulation (Compound Nos. 1-1293). The class given is cell-based. As to conditions: Human TRPC6 stably-expressing cells, OAG 30 μM, FLIPR Calcium 5 Assay Kit; read-out: Inhibitory activity (pIC50 class) (converted). In outline: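 Readout is pIC50 from four-parameter logistic fitting of inhibition of the OAG-evoked (30 μM final) fluorescence calcium signal. Human TRPC6 stable cells are dye-loaded with probenecid, and compound is applied 20 min ahead of agonist.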
Regarding `CC(C)Cn1cc(Oc2cc(Cl)ccc2-c2ncc(CCN)cn2)cn1` [compound 1021, 2-[2-[4-chloro-2-[1-(2-methylpropyl)pyrazol-4-yl]oxyphenyl]pyrimidin-5-yl]ethanamine], the IC50 was 10 to 1000 nM.

For the compound `Cc1nn(CC(C)(C)C)cc1Oc1cc(F)ccc1-c1ncc(CCN)cn1` [compound 985, 2-[2-[2-[1-(2,2-dimethylpropyl)-3-methylpyrazol-4-yl]oxy-4-fluorophenyl]pyrimidin-5-yl]ethanamine], the IC50 was below 10 nM.

Turning to `Cn1nc2c(c1Oc1cc(C#N)ccc1-c1ncc(CN)cn1)CCC2` [compound 678, 4-[5-(aminomethyl)pyrimidin-2-yl]-3-[(2-methyl-5,6-dihydro-4H-cyclopenta[c]pyrazol-3-yl)oxy]benzonitrile], the IC50 is above 1000 nM.

`Cc1cc(Oc2cc(C#N)ccc2-c2ncc([C@H](O)CN)cn2)cc(N2C[C@@H](C)O[C@@H](C)C2)n1` [compound 506, 4-[5-[(1S)-2-amino-1-hydroxyethyl]pyrimidin-2-yl]-3-[2-[(2S,6R)-2,6-dimethylmorpholin-4-yl]-6-methylpyridin-4-yl]oxybenzonitrile]: the IC50 is below 10 nM.

For the compound `Cc1nc(Oc2cc(C#N)ccc2-n2cc([C@@H](O)CN)cn2)cc(N2CCC(F)(F)C2)n1` [Compound 252, 4-[4-[(1R)-2-amino-1-hydroxyethyl]pyrazol-1-yl]-3-[6-(3,3-difluoropyrrolidin-1-yl)-2-methylpyrimidin-4-yl]oxybenzonitrile], the IC50 was above 1000 nM.

Turning to `N#Cc1ccc(-c2ncc(CN)cn2)c(Cn2cc(C3CC3)nn2)c1` [compound 1191, 4-[5-(aminomethyl)pyrimidin-2-yl]-3-[(4-cyclopropyltriazol-1-yl)methyl]benzonitrile], the IC50 is 10 to 1000 nM.

In the case of `Cc1nc(-c2cc(Oc3cc(C#N)ccc3-c3ncc(CN)cn3)n(C)n2)cs1` [compound 957, 4-[5-(aminomethyl)pyrimidin-2-yl]-3-[2-methyl-5-(2-methyl-1,3-thiazol-4-yl)pyrazol-3-yl]oxybenzonitrile], the IC50 is below 10 nM.

As to `Cc1nc(OCC2CC2(F)F)cc(Oc2cc(C#N)ccc2-c2ncc(CCN)cn2)n1` (stereo not shown) [compound 883, 4-[5-(2-aminoethyl)pyrimidin-2-yl]-3-[6-[(2,2-difluorocyclopropyl)methoxy]-2-methylpyrimidin-4-yl]oxybenzonitrile], the IC50 is 10 to 1000 nM.

In the case of `N#Cc1ccc(-c2ccc(CCN)cc2)c(Oc2cnnc(O[C@H]3CCC[C@H]3O)c2)c1` [Compound 123, 4-[4-(2-aminoethyl)phenyl]-3-[6-[(1S,2R)-2-hydroxycyclopentyl]oxypyridazin-4-yl]oxybenzonitrile], the IC50 is 10 to 1000 nM.

As to `N#Cc1ccc(-c2ccc(CCN)cc2)c(Oc2cnnc(-c3ccccn3)c2)c1` [Compound 114, 4-[4-(2-aminoethyl)phenyl]-3-(6-pyridin-2-ylpyridazin-4-yl)oxybenzonitrile], the IC50 is 10 to 1000 nM.

Consider `Cc1cc(Oc2cc(C#N)ccc2-c2cnc(CN)cn2)cc(N2CCOCC2)n1` [compound 332, 4-[5-(aminomethyl)pyrazin-2-yl]-3-(2-methyl-6-morpholin-4-ylpyridin-4-yl)oxybenzonitrile], for which the IC50 is 10 to 1000 nM.

Turning to `Cc1nc(CN2CCCC2)cn1Cc1cc(C#N)ccc1-c1ncc(CCN)cn1` [compound 1175, 4-[5-(2-aminoethyl)pyrimidin-2-yl]-3-[[2-methyl-4-(pyrrolidin-1-ylmethyl)imidazol-1-yl]methyl]benzonitrile], the IC50 is above 1000 nM.

As for `Cc1nc(Oc2cc(C#N)ccc2-c2ncc(CN)cn2)cc(-c2ccccn2)n1` [compound 472, 4-[5-(aminomethyl)pyrimidin-2-yl]-3-(2-methyl-6-pyridin-2-ylpyrimidin-4-yl)oxybenzonitrile], the IC50 was 10 to 1000 nM.

On to `CN(CC(F)F)c1cc(Oc2cc(F)ccc2-c2ncc(CCN)cn2)n(C)n1` [compound 987, 5-[2-[5-(2-aminoethyl)pyrimidin-2-yl]-5-fluorophenoxy]-N-(2,2-difluoroethyl)-N,1-dimethylpyrazole-3-amine], for which the IC50 was below 10 nM.

In the case of `Cc1nc(Sc2cc(C#N)ccc2-c2ncc(CCN)cn2)cc(N2CCOCC2)n1` [compound 1254, 4-[5-(2-aminoethyl)pyrimidin-2-yl]-3-(2-methyl-6-morpholin-4-ylpyrimidin-4-yl)sulfanylbenzonitrile], the IC50 was 10 to 1000 nM.

With `Cn1nc(C2CC2)cc1Oc1cc(C#N)ccc1-c1ccc(C(N)C(=O)N2CCOCC2)cn1` (stereo not shown) [Compound No. 487, 4-[5-(1-Amino-2-morpholin-4-yl-2-oxoethyl)pyridin-2-yl]-3-(5-cyclopropyl-2-methylpyrazol-3-yl)oxybenzonitrile], the IC50 was above 1000 nM.

As to `Cc1nc(Oc2cc(C#N)ccc2-c2ccc(CCNCCCO)cc2)cc(N2CCOCC2)n1` [Compound 58, 4-[4-[2-(3-Hydroxypropylamino)ethyl]phenyl]-3-(2-methyl-6-morpholin-4-ylpyrimidin-4-yl)oxybenzonitrile], the IC50 is 10 to 1000 nM.

For `Cc1cc(Oc2cc(C#N)ccc2-c2ccc([C@H](O)CN)cn2)cc(N2CCO[C@@H](C)C2)n1` [compound 529, 4-[5-[(1S)-2-amino-1-hydroxyethyl]pyridin-2-yl]-3-[2-methyl-6-[(2S)-2-methylmorpholin-4-yl]pyridin-4-yl]oxybenzonitrile], the IC50 was below 10 nM.

Turning to `CN(C)c1cc(Oc2cc(F)ccc2-c2ncc(CN)cn2)n(C)n1` [compound 997, 5-[2-[5-(aminomethyl)pyrimidin-2-yl]-5-fluorophenoxy]-N,N,1 trimethylpyrazole-3-amine], the IC50 is 10 to 1000 nM.

For the compound `Cn1nc2c(c1Oc1cc(C#N)ccc1-c1nccc(CN)n1)CCCC2` [compound 685, 4-[4-(aminomethyl)pyrimidin-2-yl]-3-[(2-methyl-4,5,6,7-tetrahydroindazol-3-yl)oxy]benzonitrile], the IC50 was above 1000 nM.

Consider `N#Cc1ccc(-c2ccc(CCN)cc2)c(C(=O)c2nnc(N3CCOCC3)s2)c1` [compound 1088, 4-[4-(2-aminoethyl)phenyl]-3-(5-morpholin-4-yl-1,3,4-thiadiazole-2-carbonyl)benzonitrile], for which the IC50 was 10 to 1000 nM.

In the case of `CCN(CC(F)F)c1cc(Oc2cc(F)ccc2-c2ncc(CCN)cn2)n(C)n1` [compound 989, 5-[2-[5-(2-aminoethyl)pyrimidin-2-yl]-5-fluorophenoxy]-N-(2,2-difluoroethyl)-N-ethyl-1-methylpyrazole-3-amine], the IC50 is below 10 nM.

Take `CCN(CC(F)F)c1cc(C(=O)c2cc(C#N)ccc2-c2ncc(CCN)cn2)n(C)n1` [compound 1073, 4-[5-(2-aminoethyl)pyrimidin-2-yl]-3-[5-[2,2-difluoroethyl(ethyl)amino]-2-methylpyrazole-3-carbonyl]benzonitrile]: the IC50 is below 10 nM.

For `Cn1nc(-c2ccccc2)cc1Oc1cc(C#N)ccc1-n1cc(N2CCNCCC2=O)cn1` [Compound 219, 3-(2-Methyl-5-phenylpyrazol-3-yl)oxy-4-[4-(7-oxo-1,4-diazepan-1-yl)pyrazol-1-yl]benzonitrile], the IC50 was 10 to 1000 nM.

With `Cn1nc(-c2ccccn2)cc1Oc1cc(C#N)ccc1-c1cnc(CN)s1` [compound 608, 4-[2-(aminomethyl)-1,3-thiazol-5-yl]-3-(2-methyl-5-pyridin-2-ylpyrazol-3-yl)oxybenzonitrile], the IC50 was above 1000 nM.
